Assay results: US20250129028A1, “COMPOUNDS AND METHODS FOR YAP/TEAD MODULATION AND INDICATIONS THEREFOR” (Opna Bio SA, priority 2022, published 2025)
Where two headings read alike, the source gives them in different places.

System: TEAD-dependent transcription
Assay: TEAD-dependent transcription cell-based reporter assay (MSTO-211H+12XGTIIC luciferase)
Parameters: species or system human
Conditions: MSTO-211H+12XGTIIC cell line, luciferase signal normalized to cell viability, 24 hours compound incubation, read-out: MSTO-211H GMean IC50 (uM) Cell Assay Reporter Cell Variant: TEAD
In short: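 MSTO-211H mesothelioma cells stably carrying a 12xGTIIC TEAD-response-element luciferase reporter, treated with serial compound dilutions for 24 h at 37 °C. Luminescence normalized to CellTiter-Fluor viability signal; % inhibition versus DMSO and 20 μM K-975 controls, IC50 by nonlinear regression.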

SMILES	IC50 (Homo sapiens) [µM]	IC50 [µM]
CS(=O)(=O)CCC(=O)N1CCc2ccc(Oc3ccc(C(F)(F)F)cc3)cc2C1CC1CN(C(=O)CO)C1 (stereo not shown) [P-0202, 1-(1-((1-(2-hydroxyacet-yl)azetidin-3-yl)methyl)-7-(4-(trifluoromethyl)-phenoxy)-3,4-dihydro-isoquinolin-2(1H)-yl)-3-(methylsulfonyl)-propan-1-one]	0.001 to 10	
CC(=O)N1CCC(C2c3cc(Oc4ccc(C(F)(F)F)cc4)ccc3CCN2C(=O)CCS(C)(=O)=O)C1 (stereo not shown) [P-0203, 1-(1-(1-acetylpyrrolidin-3-yl)-7-(4-(trifluorometh-yl)phenoxy)-3,4-dihydro-isoquinolin-2(1H)-yl)-3-(methylsulfonyl)-propan-1-one]	0.001 to 10	
CC(=O)N1CCC(C2c3cc(Oc4ccc(C(F)(F)F)cc4)ccc3CCN2C(=O)CCS(C)(=O)=O)C1 (stereo not shown) [P-0204, 1-(1-(1-acetylpyrrolidin-3-yl)-7-(4-(trifluorometh-yl)phenoxy)-3,4-dihydro-isoquinolin-2(1H)-yl)-3-(methylsulfonyl)-propan-1-one]		0.001 to 10
CS(=O)(=O)CCC(=O)N1CCc2ccc(Oc3ccc(C(F)(F)F)cc3)c(Br)c2C1 [P-0205, 1-(8-bromo-7-(4-(trifluoromethyl)phen-oxy)-3,4-dihydroisoquin-olin-2(1H)-yl)-3-(methyl-sulfonyl)propan-1-one]	0.001 to 10	
CS(=O)(=O)CCC(=O)N1CCc2ccc(Oc3ccc(C(F)(F)F)cc3)c(-c3cnn(CC4CC4)c3)c2C1 [P-0206, 1-(8-(1-(cyclopropyl-methyl)-1H-pyrazol-4-yl)-7-(4-(trifluorometh-yl)phenoxy)-3,4-dihydro-isoquinolin-2(1H)-yl)-3-(methylsulfonyl)-propan-1-one]	0.001 to 10	
CS(=O)(=O)CCC(=O)N1CCc2ccc(Oc3ccc(C(F)(F)F)cc3)c(-c3ccc(C4CC4)nc3)c2C1 [P-0207, 1-(8-(6-cyclopropylpyr-idin-3-yl)-7-(4-(trifluoro-methyl)phenoxy)-3,4-dihydroisoquinolin-2(1H)-yl)-3-(methylsul-fonyl)propan-1-one]	0.001 to 10	
CS(=O)(=O)CCC(=O)N1CCc2ccc(Oc3ccc(C(F)(F)F)cc3)c(-n3cc(C(F)(F)F)cn3)c2C1 [P-0208, 3-(methylsulfonyl)-1-(8-(4-(trifluoromethyl)-1H-pyrazol-1-yl)-7-(4-(trifluoromethyl)phen-oxy)-3,4-dihydroisoquin-olin-2(1H)-yl)propan-1-one]	0.001 to 10	
CCC1c2cc(Oc3ccc(C(F)(F)F)cc3)ccc2CCN1C(=O)CCS(C)(=O)=O (stereo not shown) [P-0209, 1-(1-ethyl-7-(4-(trifluoro-methyl)phenoxy)-3,4-dihydroisoquinolin-2(1H)-yl)-3-(methylsul-fonyl)propan-1-one]	0.001 to 10	
CS(=O)(=O)CCC(=O)N1CCc2ccc(Oc3ccc(C(F)(F)F)cc3)cc2C1C1CCN(C(=O)C2CC2)CC1 (stereo not shown) [P-0210, 1-(1-(1-(cyclopropanecarbonyl)piperidin-4-yl)-7-(4-(trifluoromethyl)phenoxy)-3,4-dihydroisoquinolin-2(1H)-yl)-3-(methylsulfonyl)propan-1-one]	0.001 to 10	
CS(=O)(=O)CCC(=O)N1CCc2ccc(Oc3ccc(C(F)(F)F)cc3)cc2C1C1CCOCC1 (stereo not shown) [P-0211, 3-(methylsulfonyl)-1-(1-(tetrahydro-2H-pyran-4-yl)-7-(4-(trifluorometh-yl)phenoxy)-3,4-dihydro-isoquinolin-2(1H)-yl)-propan-1-one]	0.001 to 10	
CS(=O)(=O)CCC(=O)N1CCc2ccc(Oc3ccc(C(F)(F)F)cc3)cc2C1C1CCC(C(F)(F)F)CC1 (stereo not shown) [P-0212, 3-(methylsulfonyl)-1-(1-(4-(trifluoromethyl)-cyclohexyl)-7-(4-(trifluoromethyl)phen-oxy)-3,4-dihydroisoquin-olin-2(1H)-yl)propan-1-one]	0.001 to 10	
CC(=O)N1CCC(c2c(Oc3ccc(C(F)(F)F)cc3)ccc3c2CN(C(=O)CCS(C)(=O)=O)CC3)CC1 [P-0213, 1-(8-(1-acetylpiperidin-4-yl)-7-(4-(trifluorometh-yl)phenoxy)-3,4-dihydro-isoquinolin-2(1H)-yl)-3-(methylsulfonyl)pro-pan-1-one]	0.001 to 10	
CC(=O)N1CC=C(c2c(Oc3ccc(C(F)(F)F)cc3)ccc3c2CN(C(=O)CCS(C)(=O)=O)CC3)CC1 [P-0214, 1-(8-(1-acetyl-1,2,3,6-tetrahydropyridin-4-yl)-7-(4-(trifluoromethyl)-phenoxy)-3,4-dihydroiso-quinolin-2(1H)-yl)-3-(methylsulfonyl)propan-1-one]	10 to 100	
CC(=O)N1CCC(c2c(Oc3ccc(C(F)(F)F)cc3)ccc3c2CN(C(=O)CCS(C)(=O)=O)CC3)C1 (stereo not shown) [P-0215, 1-(8-(1-acetylpyrrolidin-3-yl)-7-(4-(trifluorometh-yl)phenoxy)-3,4-dihydro-isoquinolin-2(1H)-yl)-3-(methylsulfonyl)pro-pan-1-one]	10 to 100	
CC(=O)N1CC(Cc2c(Oc3ccc(C(F)(F)F)cc3)ccc3c2CN(C(=O)CCS(C)(=O)=O)CC3)C1 [P-0216, 1-(8-((1-acetylazetidin-3-yl)methyl)-7-(4-(trifluoromethyl)phen-oxy)-3,4-dihydroisoquin-olin-2(1H)-yl)-3-(methyl-sulfonyl)propan-1-one]	0.001 to 10	
CCC1c2cc(Oc3ccc(C(F)(F)F)cc3)ccc2CCN1C(=O)CNC(N)=O (stereo not shown) [P-0219, 1-(2-(1-ethyl-7-(4-(trifluoromethyl)phen-oxy)-3,4-dihydroisoquin-olin-2(1H)-yl)-2-oxoeth-yl)urea]	0.001 to 10	
CS(=O)(=O)CCC(=O)N1CCc2ccc(Oc3ccc(C(F)(F)F)cc3)c(/C=C/C3CC3)c2C1 [P-0220, (E)-1-(8-(2-cyclopropyl-vinyl)-7-(4-(trifluoro-methyl)phenoxy)-3,4-dihydroisoquinolin-2(1H)-yl)-3-(methylsul-fonyl)propan-1-one]	0.001 to 10	
CC(C)=Cc1c(Oc2ccc(C(F)(F)F)cc2)ccc2c1CN(C(=O)CCS(C)(=O)=O)CC2 [P-0221, 1-(8-(2-methylprop-1-en-1-yl)-7-(4-(trifluorometh-yl)phenoxy)-3,4-dihydro-isoquinolin-2(1H)-yl)-3-(methylsulfonyl)pro-pan-1-one]	0.001 to 10	
CS(=O)(=O)CCC(=O)N1CCc2ccc(Oc3ccc(C(F)(F)F)cc3)c(/C=C/C3CCNCC3)c2C1 [P-0222, (E)-3-(methylsulfonyl)-1-(8-(2-(piperidin-4-yl)-vinyl)-7-(4-(trifluoro-methyl)phenoxy)-3,4-dihydroisoquinolin-2(1H)-yl)propan-1-one]	0.001 to 10	
C=CC(=O)N1CCC(C2c3cc(Oc4ccc(C(F)(F)F)cc4)ccc3CCN2C(=O)CCS(C)(=O)=O)CC1 (stereo not shown) [P-0223, 1-(4-(2-(3-(methylsulfon-yl)propanoyl)-7-(4-(trifluoromethyl)phen-oxy)-1,2,3,4-tetrahydro-isoquinolin-1-yl)piper-idin-1-yl)prop-2-en-1-one]	0.001 to 10	
COC(=O)[C@@H]1Cc2ccc(Oc3ccc(C(F)(F)F)cc3)cc2CN1C(=O)CCS(C)(=O)=O [P-0224, methyl (S)-2-(3-(methyl-sulfonyl)propanoyl)-7-(4-(trifluoromethyl)-phenoxy)-1,2,3,4-tetra-hydroisoquinoline-3-carboxylate]	0.001 to 10	
CS(=O)(=O)c1nccc(N2CCc3ccc(Oc4ccc(C(F)(F)F)cc4)cc3C2)n1 [P-0226, 2-(2-(methylsulfonyl)-pyrimidin-4-yl)-7-(4-(trifluoromethyl)phen-oxy)-1,2,3,4-tetrahydro-isoquinoline]	0.001 to 10	
